Laboratory results published in ChEMBL document CHEMBL1124186, “Synthesis and evaluation of tylosin-related macrolides modified at the aldehyde function: a new series of orally effective antibiotics” (1988).
≈ marks a conversion by molar mass, not a printed value.

Key:
[1] = tested on: Staphylococcus epidermidis; test: In vitro antimicrobial activity against Staphylococcus epidermidis EPI1; type: functional
Streptococcus pyogenes = test: In vitro antimicrobial activity against Streptococcus pyogenes C203; type: functional
Haemophilus influenzae = test: In vitro antimicrobial activity against Haemophilus influenzae.; type: functional
Staphylococcus aureus = test: In vitro antimicrobial activity against Staphylococcus aureus X1; type: functional
Enterococcus faecium = test: In vitro antimicrobial activity against Streptococcus faecium X66; type: functional, streptococcus fae-cium
Streptococcus pneumoniae = test: In vitro antimicrobial activity against Streptococcus pneumoniae; type: functional

Compound | MIC [1] [µg/mL] | MIC (Streptococcus pyogenes) [µg/mL] | MIC (Haemophilus influenzae) [µg/mL] | MIC (Staphylococcus aureus) [µg/mL] | MIC (Enterococcus faecium) [µg/mL] | MIC (Streptococcus pneumoniae) [µg/mL]
CC[C@H]1OC(=O)C[C@@H](O)[C@H](C)[C@@H](O[C@@H]2O[C@H](C)[C@@H](O[C@H]3C[C@@](C)(O)[C@@H](O)[C@H](C)O3)[C@H](N(C)C)[C@H]2O)[C@@H](CCN2C(=O)c3ccccc3C2=O)C[C@@H](C)C(=O)/C=C/C(C)=C/[C@@H]1C | 64 (≈ 74.7 µM) | 64 (≈ 74.7 µM) | > 128 | 64 (≈ 74.7 µM) | 128 (≈ 149 µM) | 8 (≈ 9.33 µM)
CC[C@H]1OC(=O)C[C@@H](O)[C@H](C)[C@@H](O[C@@H]2O[C@H](C)[C@@H](O[C@H]3C[C@@](C)(O)[C@@H](O)[C@H](C)O3)[C@H](N(C)C)[C@H]2O)[C@@H](CCI)C[C@@H](C)C(=O)/C=C/C(C)=C/[C@@H]1CO[C@@H]1O[C@H](C)[C@@H](O)[C@@H](O)[C@H]1OC | 2 (≈ 1.97 µM) | 4 (≈ 3.94 µM) | 128 (≈ 126 µM) | 2 (≈ 1.97 µM) | 128 (≈ 126 µM) | 16 (≈ 15.8 µM)
CC[C@H]1OC(=O)C[C@@H](O)[C@H](C)[C@@H](O[C@@H]2O[C@H](C)[C@@H](O)[C@H](N(C)C)[C@H]2O)[C@@H](CCN2C(=O)c3ccccc3C2=O)C[C@@H](C)C(=O)/C=C/C(C)=C/[C@@H]1CO | 4 (≈ 5.49 µM) | 64 (≈ 87.8 µM) | 64 (≈ 87.8 µM) | 4 (≈ 5.49 µM) | 16 (≈ 22 µM) | 64 (≈ 87.8 µM)
CC[C@H]1OC(=O)C[C@@H](O)[C@H](C)[C@@H](O[C@@H]2O[C@H](C)[C@@H](O[C@H]3C[C@@](C)(O)[C@@H](O)[C@H](C)O3)[C@H](N(C)C)[C@H]2O)[C@@H](CCOc2ccc(-c3ccccc3)cc2)C[C@@H](C)C(=O)/C=C/C(C)=C/[C@@H]1CO[C@@H]1O[C@H](C)[C@@H](O)[C@@H](OC)[C@H]1OC | 2 (≈ 1.87 µM) | 2 (≈ 1.87 µM) | > 128 | 2 (≈ 1.87 µM) | 8 (≈ 7.47 µM) | 1 (≈ 0.934 µM)
CC[C@H]1C[C@@H](C)C(=O)/C=C/C(C)=C/[C@H](C)[C@@H](CC)OC(=O)C[C@@H](O)[C@H](C)[C@H]1O[C@@H]1O[C@H](C)[C@@H](O)[C@H](N(C)C)[C@H]1O | 16 (≈ 28.2 µM) | 8 (≈ 14.1 µM) | 64 (≈ 113 µM) | 8 (≈ 14.1 µM) | 64 (≈ 113 µM) | 16 (≈ 28.2 µM)
CC[C@H]1C[C@@H](C)C(=O)/C=C/C(C)=C/[C@H](C)[C@@H](CC)OC(=O)C[C@@H](O)[C@H](C)[C@H]1O[C@@H]1O[C@H](C)[C@@H](O[C@H]2C[C@@](C)(O)[C@@H](O)[C@H](C)O2)[C@H](N(C)C)[C@H]1O | 64 (≈ 89.9 µM) | 128 (≈ 180 µM) | > 128 | 128 (≈ 180 µM) | > 128 | 64 (≈ 89.9 µM)
CC[C@H]1OC(=O)C[C@@H](O)[C@H](C)[C@@H](O[C@@H]2O[C@H](C)[C@@H](O[C@H]3C[C@@](C)(O)[C@@H](O)[C@H](C)O3)[C@H](N(C)C)[C@H]2O)[C@@H](CCNCCc2ccccc2)C[C@@H](C)C(=O)/C=C/C(C)=C/[C@@H]1CO | 16 (≈ 18.9 µM) | 8 (≈ 9.44 µM) | 64 (≈ 75.6 µM) | 16 (≈ 18.9 µM) | 32 (≈ 37.8 µM) | 4 (≈ 4.72 µM)
CC[C@H]1C[C@@H](C)C(=O)/C=C/C(C)=C/[C@H](CO)[C@@H](CC)OC(=O)C[C@@H](O)[C@H](C)[C@H]1O[C@@H]1O[C@H](C)[C@@H](O[C@H]2C[C@@](C)(O)[C@@H](O)[C@H](C)O2)[C@H](N(C)C)[C@H]1O | 128 (≈ 176 µM) | > 128 | > 128 | 128 (≈ 176 µM) | > 128 | > 128
CC[C@H]1OC(=O)C[C@@H](O)[C@H](C)[C@@H](O[C@@H]2O[C@H](C)[C@@H](O)[C@H](N(C)C)[C@H]2O)[C@@H](CCN2C(=O)c3ccccc3C2=O)C[C@@H](C)C(=O)/C=C/C(C)=C/[C@@H]1C | 8 (≈ 11.2 µM) | 64 (≈ 89.8 µM) | 128 (≈ 180 µM) | 8 (≈ 11.2 µM) | 32 (≈ 44.9 µM) | 64 (≈ 89.8 µM)

Molecules with a lower MIC [1], results first:

MIC [1] [µg/mL] | MIC (Streptococcus pyogenes) [µg/mL] | MIC (Haemophilus influenzae) [µg/mL] | MIC (Staphylococcus aureus) [µg/mL] | MIC (Enterococcus faecium) [µg/mL] | MIC (Streptococcus pneumoniae) [µg/mL] | Compound
1 (≈ 0.956 µM) | 4 (≈ 3.82 µM) | > 128 | 0.5 (≈ 0.478 µM) | 32 (≈ 30.6 µM) | 4 (≈ 3.82 µM) | CC[C@H]1OC(=O)C[C@@H](O)[C@H](C)[C@@H](O[C@@H]2O[C@H](C)[C@@H](O[C@H]3C[C@@](C)(O)[C@@H](O)[C@H](C)O3)[C@H](N(C)C)[C@H]2O)[C@@H](CCOc2ncnc3ccccc23)C[C@@H](C)C(=O)/C=C/C(C)=C/[C@@H]1CO[C@@H]1O[C@H](C)[C@@H](O)[C@@H](OC)[C@H]1OC
1 (≈ 1.09 µM) | 4 (≈ 4.35 µM) | > 128 | 1 (≈ 1.09 µM) | > 128 | 64 (≈ 69.6 µM) | CC[C@H]1OC(=O)C[C@@H](O)[C@H](C)[C@@H](O[C@@H]2O[C@H](C)[C@@H](O[C@H]3C[C@@](C)(O)[C@@H](O)[C@H](C)O3)[C@H](N(C)C)[C@H]2O)[C@@H](CCF)C[C@@H](C)C(=O)/C=C/C(C)=C/[C@@H]1CO[C@@H]1O[C@H](C)[C@@H](O)[C@@H](OC)[C@H]1OC
0.25 (≈ 0.305 µM) | 0.25 (≈ 0.305 µM) | 16 (≈ 19.5 µM) | 0.25 (≈ 0.305 µM) | 8 (≈ 9.77 µM) | 2 (≈ 2.44 µM) | CC[C@H]1OC(=O)C[C@@H](O)[C@H](C)[C@@H](O[C@@H]2O[C@H](C)[C@@H](O)[C@H](N(C)C)[C@H]2O)[C@@H](CCO[N+](=O)[O-])C[C@@H](C)C(=O)/C=C/C(C)=C/[C@@H]1CO[C@@H]1O[C@H](C)[C@@H](O)[C@@H](OC)[C@H]1OC
0.5 (≈ 0.575 µM) | 0.5 (≈ 0.575 µM) | 32 (≈ 36.8 µM) | 0.5 (≈ 0.575 µM) | 16 (≈ 18.4 µM) | 2 (≈ 2.3 µM) | CC[C@H]1OC(=O)C[C@@H](O)[C@H](C)[C@@H](O[C@@H]2O[C@H](C)[C@@H](O)[C@H](N(C)C)[C@H]2O)[C@@H](CCI)C[C@@H](C)C(=O)/C=C/C(C)=C/[C@@H]1CO[C@@H]1O[C@H](C)[C@@H](O)[C@@H](O)[C@H]1OC
0.25 (≈ 0.306 µM) | 0.12 (≈ 0.147 µM) | 16 (≈ 19.6 µM) | 0.5 (≈ 0.613 µM) | 8 (≈ 9.8 µM) | 2 (≈ 2.45 µM) | CC[C@H]1OC(=O)C[C@@H](O)[C@H](C)[C@@H](O[C@@H]2O[C@H](C)[C@@H](O)[C@H](N(C)C)[C@H]2O)[C@@H](CCOC(C)=O)C[C@@H](C)C(=O)/C=C/C(C)=C/[C@@H]1CO[C@@H]1O[C@H](C)[C@@H](O)[C@@H](OC)[C@H]1OC
0.5 (≈ 0.56 µM) | 0.25 (≈ 0.28 µM) |  | 0.5 (≈ 0.56 µM) | 4 (≈ 4.48 µM) | 1 (≈ 1.12 µM) | CC[C@H]1OC(=O)C[C@@H](O)[C@H](C)[C@@H](O[C@@H]2O[C@H](C)[C@@H](O)[C@H](N(C)C)[C@H]2O)[C@@H](CCOc2cccc(N(C)C)c2)C[C@@H](C)C(=O)/C=C/C(C)=C/[C@@H]1CO[C@@H]1O[C@H](C)[C@@H](O)[C@@H](OC)[C@H]1OC
1 (≈ 0.964 µM) | 1 (≈ 0.964 µM) | 128 (≈ 123 µM) | 1 (≈ 0.964 µM) | 64 (≈ 61.7 µM) | 8 (≈ 7.71 µM) | CC[C@H]1OC(=O)C[C@@H](O)[C@H](C)[C@@H](O[C@@H]2O[C@H](C)[C@@H](O[C@H]3C[C@@](C)(O)[C@@H](O)[C@H](C)O3)[C@H](N(C)C)[C@H]2O)[C@@H](CCOc2cccc(N(C)C)c2)C[C@@H](C)C(=O)/C=C/C(C)=C/[C@@H]1CO[C@@H]1O[C@H](C)[C@@H](O)[C@@H](OC)[C@H]1OC
1.2 (≈ 1.61 µM) | 0.5 (≈ 0.672 µM) |  | 0.25 (≈ 0.336 µM) | 8 (≈ 10.8 µM) | 4 (≈ 5.38 µM) | CC[C@H]1C[C@@H](C)C(=O)/C=C/C(C)=C/[C@H](CO[C@@H]2O[C@H](C)[C@@H](O)[C@@H](O)[C@H]2OC)[C@@H](CC)OC(=O)C[C@@H](O)[C@H](C)[C@H]1O[C@@H]1O[C@H](C)[C@@H](O)[C@H](N(C)C)[C@H]1O
0.25 (≈ 0.284 µM) | 1 (≈ 1.14 µM) |  | 0.25 (≈ 0.284 µM) | 4 (≈ 4.55 µM) | 1 (≈ 1.14 µM) | CC[C@H]1OC(=O)C[C@@H](O)[C@H](C)[C@@H](O[C@@H]2O[C@H](C)[C@@H](O)[C@H](N(C)C)[C@H]2O)[C@@H](CCOc2ccc(OC)cc2)C[C@@H](C)C(=O)/C=C/C(C)=C/[C@@H]1CO[C@@H]1O[C@H](C)[C@@H](O)[C@@H](OC)[C@H]1OC
0.5 (≈ 0.689 µM) | 0.25 (≈ 0.344 µM) | 8 (≈ 11 µM) | 0.5 (≈ 0.689 µM) | 0.5 (≈ 0.689 µM) | 0.12 (≈ 0.165 µM) | CC[C@H]1OC(=O)C[C@@H](O)[C@H](C)[C@@H](O[C@@H]2O[C@H](C)[C@@H](O[C@H]3C[C@@](C)(O)[C@@H](O)[C@H](C)O3)[C@H](N(C)C)[C@H]2O)[C@@H](CC=O)C[C@@H](C)C(=O)/C=C/C(C)=C/[C@@H]1C
0.25 (≈ 0.285 µM) | 1 (≈ 1.14 µM) |  | 0.25 (≈ 0.285 µM) | 8 (≈ 9.11 µM) | 0.25 (≈ 0.285 µM) | CC[C@H]1OC(=O)C[C@@H](O)[C@H](C)[C@@H](O[C@@H]2O[C@H](C)[C@@H](O)[C@H](N(C)C)[C@H]2O)[C@@H](CCOCCc2ccccc2)C[C@@H](C)C(=O)/C=C/C(C)=C/[C@@H]1CO[C@@H]1O[C@H](C)[C@@H](O)[C@@H](OC)[C@H]1OC
